Experiments:
[1] = system: breast cancer cells; assay: Cell growth assay (crystal violet); format: cell-based, human; settings: for inhibition at 50 µM: Homo sapiens, 72 hrs
From the text: Cells wereplated on 96-well (30,000 cells/well) or 24-well plates (50,000 cells/well). […] Cells were stained with crystal violet (0.5% in Methanol:Acetic Acid=3:1) and washed with PBS. Crystal violet was solubilized in DMSO and measured in a microplate reader at 592 nm.

[2] = system: breast cancer cells; assay: Caspase 3/7 assay; format: cell-based, human; settings: 50 μM, within 72 hrs
Description: Cells were cultured in 96-well plates (30,000 cells/well). After compound 1 treatment for 24-72 hrs, cellular apoptosis was analyzed using the Caspase-Glo 3/7 Assay kit (Promega) according to the manufacturer's instructions.

[3] = system: MCF7-tet-off cells; assay: 96 Well BME Cell Invasion Assay; format: cell-based, human; settings: MCF7-tet-off (+Doxy) and (-Doxy), 50 μM, 24 hrs
Description: MCF7-tet-off cells were grown in the media with (+Doxy) or without doxycycline (−Dox) for 72 hours. Cells were then treated with compound 1 (50 μM) for 24 hrs, and trypsinized and suspended in serum-free media. Cells were re-plated in the top chamber precoated with 0.1× BME (Cultrex), and growth medium supplemented with 10% FBS was used as a chemoattractant in the bottom chamber. compound 1 was added to both chambers and incubated for 16 hrs. Cellular invasion was analyzed according to the 96 Well BME Cell Invasion Assay protocol (Cultrex).

[4] = system: MDA-231 cells; assay: Cell-electrode impedance invasion assay (xCELLigence); format: cell-based, human; settings: MDA-231, 50 μM, 48 hrs
Description: Real-time monitoring of cellular invasion was examined using an electrical impedance assay with an xCELLigence RTCA SP real-time cell-sensing device (Roche Applied Science). Matrigel (20 μl of 0.5 mg/ml) was pre-coated in the upper chamber of CIM plates and polymerized for 4 h and MDA-231 cells (75,000) were seeded onto wells containing growth medium with vehicle (0.1% DMSO) or compound 1 (50 μM). Impedance-based signals were measured every 5 minutes for 48 hrs according to the manufacturer's instructions. The invasive activity is expressed as the cell index (mean±SD) of duplicate wells. Three independent experiments were performed. In parallel, MDA-231 cells were plated onto wells with serum-free medium and the assay was performed.

[5] = system: RUNX2 transcriptional activity; assay: Luciferase-promoter reporter assay of RUNX2 target genes; format: cell-based, human
Description: Cells were plated in 96-well plates (30,000 cells/well) and incubated overnight. Cells were co-transfected with indicated luciferase-reporter plasmids (25 ng/well) and pSV-Renilla-Luc (Promega) (15 ng/well) for 6 hrs and compound 1 ([…]) was further treated for 18-48 hrs. COX-2 (P2-274)-Luc (−170bp˜+104bp) and control plasmids (PXP2-Luc) were kindly provided byDr. Miguel A. Iñiguez (Universidad Autónoma de Madrid, Spain), and pNF-kb-Luc was from Dr. Hancai Dan (University of Maryland). Luciferase assay was performed using the Dual-Glo Luciferase Assay Systems as per manufacturer's recommendation (Promega).

[6] = system: Lats1/2; assay: Lats1/2 phosphorylation (Hippo signaling); format: cell-based, human; settings: compound 1, 24 hours
Description: In FIG. 22A HCC1428 luminal BC cells that express E-Cadherin were treated with recombinant soluble E-Cadherin (rsE-Cad) for 24 hr and total cell extracts were analyzed for phosphorylation of the Lats1/2 tumor suppressors. Phospho.Lats1/2 and total Lats1/2 levels declined with rsE-Cad treatment consistent with TAZ translocation to the nucleus, where it acts as an oncogene with RUNX2. […] MCF7 cells expressing RUNX2 (Tet.OFF) were treated with compound 1 drug for 24 hours and total cell extracts were analyzed for phosphp.Lats1/2, total Lats1/2, and RUNX2 expression.

[7] = system: mammary tumors; assay: MMTV-PyMT transgenic mouse model; format: in vivo, MMTV-PyMT mice
Description: For the MMTV polyoma middle T antigen (PyMT) mouse model, female mice were purchased from Jackson Laboratory. As mice developed first palpable mammary tumors after 5 weeks of age, mice were randomly assigned to 4 treatment groups at 6 weeks of age and received i.p. injections of compound 1 (1, 5 and 20 mg/kg/group) or equivalent volumes of vehicle (10% DMSO/90% PBS) (200 μl) twice a week. Palpable tumors were monitored every 1 to 2 days until 12 weeks of age to determine tumor incidence (number of tumors per mouse) and onset (the age of palpable tumors). Tumor weight was quantified at the final day after mice were euthanized and tumors were excised. Tumor volume [(length×width^2)/2] was measured by caliper.

[8] = system: MCF10A non-malignant mammary epithelial cells; assay: Mammosphere formation of non-malignant cells; format: cell-based, human
[9] = target: RUNX2 (Homo sapiens, UniProt Q13950); assay: D-ELISA DNA binding assay; parameters: endogenous in cells; settings: read-out: IC50 in D-ELISA DNA binding assays (RUNX2 DNA binding)
Description: A microtiter plate-based D-ELISA was performed as described. Briefly, nuclear proteins were isolated from HBME-1 cells that express all three RUNX proteins and bound to double-stranded DNA oligonucleotides of human osteocalcin and MMP13 (forward primer: 5′-TTCTACCACAAACCACACTCGTTCTACCACAAACCACACTCGTTCTACCACAAACCACACTCG-Biotin-3′, SEQ ID NO: 4 and reverse primer: 5′-CGAGTGTGGTTTGTGGTAGAACGAGTGTGGTTTGTGGTAGAACGAGTGTGGTTTGTGGTAGAA-Biotin-3′, SEQ ID NO: 5). Vehicle (0.05% DMSO) or compound 1 at different concentrations were incubated with the proteins and DNA oligonucleotide mixture in Avidin-coated 96-well plates. DNA-bound RUNX proteins were captured with specific antibodies (Cell Signaling Technologies). Primary and secondary antibody dilution was 1:500 and 1:10,000, respectively.

Sequence of RUNX2 (Q13950 whole entry): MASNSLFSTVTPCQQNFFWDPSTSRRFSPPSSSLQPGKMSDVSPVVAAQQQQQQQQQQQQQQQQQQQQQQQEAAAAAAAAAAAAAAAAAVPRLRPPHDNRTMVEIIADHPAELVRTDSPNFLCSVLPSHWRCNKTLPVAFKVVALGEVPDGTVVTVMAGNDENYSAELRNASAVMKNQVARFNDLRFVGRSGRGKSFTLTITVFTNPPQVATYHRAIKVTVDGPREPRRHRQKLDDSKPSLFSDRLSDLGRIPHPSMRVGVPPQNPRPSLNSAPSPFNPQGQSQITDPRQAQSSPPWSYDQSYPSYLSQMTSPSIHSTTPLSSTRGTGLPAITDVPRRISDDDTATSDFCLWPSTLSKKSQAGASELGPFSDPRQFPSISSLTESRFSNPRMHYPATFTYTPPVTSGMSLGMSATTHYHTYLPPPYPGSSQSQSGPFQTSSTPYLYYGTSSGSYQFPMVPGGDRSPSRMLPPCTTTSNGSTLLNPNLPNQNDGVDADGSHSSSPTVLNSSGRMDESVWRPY

Which results are given for `O=C(O)C1C2C=CC(C2)C1C(=O)Nc1ccc(Cl)c(Cl)c1` (centres unmarked) [compound 1, 3-(N-(3,4-dichlorophenyl)carbamoyl)-5-norbornene-2-carboxylic acid]?
inhibition in cell viability ([1]; 0˜100 μM, over 24 hrs): no significant inhibition; cell growth inhibition ([1]; 0˜100 μM, over 72 hrs): dose- and time-dependent cell growth inhibition; inhibition at 50 µM ([1]; MDA-MB-468 cells): > 50%; inhibition at 50 µM ([1]; majority of TNBC and luminal type BC cells): < 50%; cell proliferation relative to vehicle controls ([1]; ectopic RUNX2-expressing MCF7 and T47D cells, 7 days): dramatic decrease; caspase-3/7 activity compared to vehicle controls [2]: no change; invasiveness [3]: almost abrogated; cell index (mean±SD) [4]: 1.6636±0.1845; MMP13 promoter activity ([5]; BT474 cells that do not express RUNX2, 48 hrs): did not attenuate; repression of MMP13 promoter-Luc activity ([5]; MCF7-RUNX2 cells): about 50%; MMP13 promoter activity ([5]; MDA-231 cells that express RUNX2, 48 hrs): decreased significantly; promoter-Luc activities of control cells ([5]; T47D-Empty and MCF7-Empty): little effect; promoter-luciferase activities of MMP13, VEGF and OC ([5]; T47D-RUNX2 and MCF7-RUNX2 cells, 48 hrs): dramatic decrease; RUNX2-repressed p21 promoter activity ([5]; T47D-RUNX2 cells): reactivated; p6xOSE2-Luc activity ([5]; T47D-RUNX2 cells): slightly but significantly reduced; MMP13 promoter-Luc activity ([5]; T47D-RUNX2 cells, 2 μM): almost completely blocked; phosphorylation of the Lats1/2 tumor suppressors [6]: increase in phosphorylation; tumor incidence per mouse at the final day (mean±SEM) ([7]; 1 mg/Kg): 4.14±0.88; tumor onset, Frequency of mode ([7]; 1 mg/kg): 8; tumor onset, Mode ([7]; 1 mg/kg): 43; tumor onset, range ([7]; 1 mg/kg): 15˜45; mice with less than 3 tumors ([7]; 5 mg/Kg): 40%; tumor incidence per mouse at the final day (mean±SEM) ([7]; 5 mg/Kg): 3.05±2.57; tumor onset, Frequency of mode ([7]; 5 mg/kg): 11; tumor onset, Mode ([7]; 5 mg/kg): 43; tumor onset, range ([7]; 5 mg/kg): 1˜45; fraction of mice with over 6 tumors ([7]; 20 mg/Kg): no mice; mice with less than 3 tumors ([7]; 20 mg/Kg): 55%; tumor incidence per mouse at the final day (mean±SEM) ([7]; 20 mg/Kg): 2.57±0.72; tumor onset, Frequency of mode ([7]; 20 mg/kg): 9; tumor onset, Mode ([7]; 20 mg/kg): 40; tumor onset, range ([7]; 20 mg/kg): 22˜45; tumor weight ([7]; 1, 5, 20 mg/Kg): reduction; staining of Ki67 in tumor sections versus control mice ([7]; IHC): much weaker; onset of the tumors ([7]; i.p., up to 20 mg/kg, 45 days): significantly delayed; body weight and general health ([7]; up to 20 mg/kg, MMTV-PyMT mice): did not significantly decrease body weight; mammosphere formation [8]: did not have a significant influence; IC50 [9]: 10 nM

Reference: patent US11634381B2, “RUNX2 transcription factor inhibitors and uses thereof” (University of Maryland, Baltimore, priority 2015, dated 2023)
